Test results as given in PubChem BioAssay AID248 (DTP/NCI, 2004).
Values joined by “and” are separate entries in the source; they are usually repeats but may differ in a detail not shown here. Identical values can stand only once. Toxic doses and inconclusive results are not listed. Rule as the data show it: active = T/C of 150% or more; inactive = T/C below 125%.

System: L1210 leukemia ip in BDF1 mice, survival T/C
Assay: NCI In Vivo Anticancer Drug Screen. Data for tumor model L1210 Leukemia (intraperitoneal) in B6D2F1 (BDF1) mice
Conditions: endpoint: mean survival time, higher = longer survival
In short: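 Tumor cells were implanted, animals were treated, and survival was followed. The result divides the treated measurement by the vehicle-control measurement.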

[1] = dose: 100.0 mg/kg/injection, schedule: Q01DX009 (ip), vehicle: saline with Tween-80
[2] = dose: 100.0 mg/kg/injection, schedule: Q04DX003 (ip), vehicle: saline with Tween-80
[3] = dose: 200.0 mg/kg/injection, schedule: Q01DX009 (ip), vehicle: saline with Tween-80
[4] = dose: 200.0 mg/kg/injection, schedule: Q04DX003 (ip), vehicle: saline with Tween-80
[5] = dose: 400.0 mg/kg/injection, schedule: Q04DX003 (ip), vehicle: saline with Tween-80

Measured: T/C

CC(=O)CCC1(c2cc[n+](C)cc2)CCC(C)(O)C(C(C)=O)C1 (stereo unspecified)
inactive: dose: 100.0 mg/kg/injection, schedule: Q04DX003 (ip), vehicle: saline 93 % of control | dose: 200.0 mg/kg/injection, schedule: Q04DX003 (ip), vehicle: saline 94 % of control | dose: 400.0 mg/kg/injection, schedule: Q04DX003 (ip), vehicle: saline 100 % of control

O=CC1CC2CCC1C2 (stereo unspecified)
inactive: dose: 100.0 mg/kg/injection, schedule: Q01DX001 (ip), vehicle: saline 116 % of control | dose: 200.0 mg/kg/injection, schedule: Q01DX001 (ip), vehicle: saline 91 % of control | dose: 400.0 mg/kg/injection, schedule: Q01DX001 (ip), vehicle: saline 96 % of control

OC(c1ccccc1)C(O)c1ccccc1 (stereo unspecified)
inactive: dose: 5.0 mg/kg/injection, schedule: Q01DX001 (ip), vehicle: saline 103 % of control | dose: 10.0 mg/kg/injection, schedule: Q01DX001 (ip), vehicle: saline 100 % of control | dose: 12.5 mg/kg/injection, schedule: Q01DX009 (ip), vehicle: Klucel (hydroxypropylcellulose) (HPC) 93 % of control | dose: 20.0 mg/kg/injection, schedule: Q01DX001 (ip), vehicle: saline 97 % of control | dose: 25.0 mg/kg/injection, schedule: Q01DX009 (ip), vehicle: Klucel (hydroxypropylcellulose) (HPC) 92 % of control | dose: 40.0 mg/kg/injection, schedule: Q01DX001 (ip), vehicle: saline 92 % of control | dose: 50.0 mg/kg/injection, schedule: Q01DX009 (ip), vehicle: Klucel (hydroxypropylcellulose) (HPC) 93 % of control | dose: 80.0 mg/kg/injection, schedule: Q01DX001 (ip), vehicle: saline 98 % of control

NC(CCCNc1nc(O)c(-c2ccccc2)c(=O)[nH]1)C(=O)O (stereo unspecified)
inactive: dose: 75.0 mg/kg/injection, schedule: Q01DX001 (ip), vehicle: saline 104 % of control | dose: 150.0 mg/kg/injection, schedule: Q01DX001 (ip), vehicle: saline 102 % of control | dose: 300.0 mg/kg/injection, schedule: Q01DX001 (ip), vehicle: saline 102 % of control

O=C(O)C(CS)NS(=O)(=O)Cc1ccccc1 (stereo unspecified)
inactive: dose: 100.0 mg/kg/injection, schedule: Q01DX001 (ip), vehicle: other 104 % of control | dose: 200.0 mg/kg/injection, schedule: Q01DX001 (ip), vehicle: other 94 % of control | dose: 400.0 mg/kg/injection, schedule: Q01DX001 (ip), vehicle: other 100 % of control

CN=Cc1ccc([N+](=O)[O-])cc1
inactive: dose: 75.0 mg/kg/injection, schedule: Q01DX001 (ip), vehicle: Klucel (hydroxypropylcellulose) (HPC) 91 % of control | dose: 75.0 mg/kg/injection, schedule: Q01DX009 (ip), vehicle: Klucel (hydroxypropylcellulose) (HPC) 96 % of control | dose: 150.0 mg/kg/injection, schedule: Q01DX001 (ip), vehicle: Klucel (hydroxypropylcellulose) (HPC) 91 % of control | dose: 150.0 mg/kg/injection, schedule: Q01DX009 (ip), vehicle: Klucel (hydroxypropylcellulose) (HPC) 105 % of control | dose: 300.0 mg/kg/injection, schedule: Q01DX001 (ip), vehicle: Klucel (hydroxypropylcellulose) (HPC) 96 % of control | dose: 300.0 mg/kg/injection, schedule: Q01DX009 (ip), vehicle: Klucel (hydroxypropylcellulose) (HPC) 95 % of control

CC12CC/C(=N/NC(=O)Cc3c[nH]c4ccccc34)CC1CCC1C2CCC2(C)C(OC(=O)c3ccccc3)CCC12 (stereo unspecified)
inactive: dose: 100.0 mg/kg/injection, schedule: Q01DX001 (sc), vehicle: steriod suspending solution 101 % of control | dose: 100.0 mg/kg/injection, schedule: Q01DX009 (sc), vehicle: steriod suspending solution 104 % of control | dose: 200.0 mg/kg/injection, schedule: Q01DX001 (sc), vehicle: steriod suspending solution 100 % of control | dose: 200.0 mg/kg/injection, schedule: Q01DX009 (sc), vehicle: steriod suspending solution 104 % of control | dose: 400.0 mg/kg/injection, schedule: Q01DX001 (sc), vehicle: steriod suspending solution 111 % of control | dose: 400.0 mg/kg/injection, schedule: Q01DX009 (sc), vehicle: steriod suspending solution 102 % of control

CC(C)N(C(=O)COc1ccc(Cl)cc1Cl)c1ccccc1
inactive: [1] 102 % of control | [2] 96 % of control | [3] 106 % of control | [4] 96 % of control | dose: 400.0 mg/kg/injection, schedule: Q01DX009 (ip), vehicle: saline with Tween-80 124 % of control | [5] 91 % of control

Cc1ccc([N+](=O)[O-])cc1NC(=O)Oc1ccc(Cl)cc1Cl
inactive: [2] 104 % of control | [4] 100 % of control

O=C(Nc1cc(Cl)ccc1Cl)c1ccccc1Cl
inactive: dose: 100.0 mg/kg/injection, schedule: Q01DX009 (ip), vehicle: Klucel (hydroxypropylcellulose) (HPC) 94 % of control | dose: 100.0 mg/kg/injection, schedule: Q04DX003 (ip), vehicle: Klucel (hydroxypropylcellulose) (HPC) 102 % of control | dose: 200.0 mg/kg/injection, schedule: Q01DX009 (ip), vehicle: Klucel (hydroxypropylcellulose) (HPC) 87 % of control | dose: 200.0 mg/kg/injection, schedule: Q04DX003 (ip), vehicle: Klucel (hydroxypropylcellulose) (HPC) 97 % of control | dose: 400.0 mg/kg/injection, schedule: Q01DX009 (ip), vehicle: Klucel (hydroxypropylcellulose) (HPC) 92 % of control | dose: 400.0 mg/kg/injection, schedule: Q04DX003 (ip), vehicle: Klucel (hydroxypropylcellulose) (HPC) 91 % of control

O=C(N/N=C/c1ccco1)c1ccccc1O
inactive: dose: 50.0 mg/kg/injection, schedule: Q01DX009 (ip), vehicle: saline with Tween-80 108 % of control | [1] 102 % of control | [3] 97 % of control

CC(=O)c1cccc(OC(=O)Nc2ccc(Cl)cc2)c1
inactive: dose: 100.0 mg/kg/injection, schedule: Q01DX001 (ip), vehicle: carboxymethylcellulose (CMC) 89 % of control | dose: 100.0 mg/kg/injection, schedule: Q01DX009 (ip), vehicle: carboxymethylcellulose (CMC) 101 % of control and 102 % of control | dose: 100.0 mg/kg/injection, schedule: Q04DX003 (ip), vehicle: carboxymethylcellulose (CMC) 92 % of control and 90 % of control | dose: 200.0 mg/kg/injection, schedule: Q01DX001 (ip), vehicle: carboxymethylcellulose (CMC) 94 % of control | dose: 200.0 mg/kg/injection, schedule: Q01DX009 (ip), vehicle: carboxymethylcellulose (CMC) 98 % of control and 90 % of control | dose: 200.0 mg/kg/injection, schedule: Q04DX003 (ip), vehicle: carboxymethylcellulose (CMC) 95 % of control and 97 % of control | dose: 400.0 mg/kg/injection, schedule: Q01DX001 (ip), vehicle: carboxymethylcellulose (CMC) 89 % of control | dose: 400.0 mg/kg/injection, schedule: Q01DX009 (ip), vehicle: carboxymethylcellulose (CMC) 98 % of control and 88 % of control | dose: 400.0 mg/kg/injection, schedule: Q04DX003 (ip), vehicle: carboxymethylcellulose (CMC) 90 % of control

COc1cc(/C=N/OCc2cc3c(cc2Cl)OCO3)cc(OC)c1OC
inactive: [2] 99 % of control | [4] 94 % of control | [5] 96 % of control
